Experimental data: ChEMBL document CHEMBL6096719, “Kidney Targeting Smart Antibiotic Discovery: Multimechanism Pleuromutilins for Pyelonephritis Therapy” (J Med Chem, 2025)
Calls of active or inactive are those of the source. The rule behind the calls is not given here.

Tests used:
[1] = system: Staphylococcus epidermidis; assay: Antibacterial activity against methicillin-resistant Staphylococcus epidermidis ATCC 51625 assessed as inhibition of bacterial growth incubated for 24 hrs by broth microdilution method; assay type: functional
Escherichia coli = assay: Antibacterial activity against Escherichia coli CMCC 44103 assessed as inhibition of bacterial growth incubated for 24 hrs by broth microdilution method; assay type: functional
Cell membrane = assay: Disruption of cell membrane in methicillin-resistant Staphylococcus aureus ATCC33591 assessed as induction of cell death by measuring increase in propidium iodide fluorescence intensity at 0.5 ug/ml incubated for 2 hrs by fluorescence field microscopy; assay type: subcellular; conditions: dose 0.5 µg/ml
Staphylococcus aureus = assay: Antibacterial activity against methicillin-resistant Staphylococcus aureus ATCC33591 infected in systemic intraperitoneal infection Kunming mouse model assessed as decrease in inflammation and neutrophil infiltration in kidney at 5 mg/kg, ip treated at 1 hr post-infection and measured after 7 days by Hematoxylin-Eosin staining based analysis; assay type: functional, organism-based; conditions: time 7.0 day
[2] = Half-life in Sprague-Dawley rat at 5 mg/kg, iv; assay type: ADME, organism-based; conditions: in vivo
[3] = Observed clearance in Sprague-Dawley rat at 5 mg/kg, iv; assay type: ADME, organism-based; conditions: in vivo
[4] = Drug uptake in Sprague-Dawley rat liver at 5 mg/kg, iv measured for 6 hrs by LC-MS/MS analysis; assay type: ADME, organism-based; conditions: in vivo

**Q.** What does the source list for `C=C[C@]1(C)C[C@@H](OC(=O)CSc2nc3cc[n+](Cc4ccc(C)cc4)cc3[nH]2)[C@]2(C)[C@H](C)CC[C@]3(CCC(=O)[C@H]32)[C@@H](C)[C@@H]1O.[Br-]`?
**A.** MIC [1]: < 1 µg/mL; MIC (Escherichia coli): < 1 µg/mL; Activity (Cell membrane): Active; Activity (Staphylococcus aureus): Active; Nearly Restoration Of Normal Histology Observed; half-life [2]: 1.17 h; clearance [3]: 5.04 mL/min/kg; Drug uptake [4]: Active
